Blank lines part the entries; values can stand above or below the molecule they belong to. *1 amine or outer side, *2 acyl side, *3 side chain or, on linkers, in order; H or OH if unused. Where a SMILES comes first, the peptide text is derived from it. Bridges are numbered along the chain shown (N, C = ends). [ ]: non-standard residue; d: D form. X1 = O=C(O)CCNC(=S)NCCCC[C@H](N[*:1])C(=O)[*:2]; Suberoyl = O=C(CCCCCCC(=O)[*:2])[*:1]
Assays:
[1] = target: T1, NAD-dependent protein deacylase sirtuin-5, mitochondrial (Homo sapiens, UniProt Q9NXA8); assay: Inhibition of SIRT5 (unknown origin) at 30 uM relative to control
Target sequence in this assay (Q9NXA8 37-310 limits assumed): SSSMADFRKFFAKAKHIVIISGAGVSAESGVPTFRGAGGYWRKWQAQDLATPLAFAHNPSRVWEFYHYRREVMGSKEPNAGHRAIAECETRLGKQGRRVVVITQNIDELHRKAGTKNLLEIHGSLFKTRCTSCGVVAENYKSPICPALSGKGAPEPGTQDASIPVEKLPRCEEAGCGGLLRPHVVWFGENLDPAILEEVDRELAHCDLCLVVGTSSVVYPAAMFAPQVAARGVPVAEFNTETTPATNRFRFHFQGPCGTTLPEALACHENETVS

[2] = target: T1, NAD-dependent protein deacylase sirtuin-5, mitochondrial; assay: Inhibition of SIRT5 (unknown origin) at 100 uM relative to control
Target sequence in this assay (Q9NXA8 37-310 limits assumed): as above

[3] = target: T1, NAD-dependent protein deacylase sirtuin-5, mitochondrial; assay: Inhibition of SIRT5 (unknown origin)
Target sequence in this assay (Q9NXA8 whole entry): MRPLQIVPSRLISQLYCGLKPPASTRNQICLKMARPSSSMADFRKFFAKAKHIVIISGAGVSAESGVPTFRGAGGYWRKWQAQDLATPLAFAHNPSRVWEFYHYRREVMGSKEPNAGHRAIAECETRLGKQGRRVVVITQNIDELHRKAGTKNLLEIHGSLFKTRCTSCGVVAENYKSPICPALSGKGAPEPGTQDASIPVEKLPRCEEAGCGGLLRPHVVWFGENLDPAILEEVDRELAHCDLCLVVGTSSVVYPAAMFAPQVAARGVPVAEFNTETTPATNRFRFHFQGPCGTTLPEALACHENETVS

[4] = target: T1, NAD-dependent protein deacylase sirtuin-5, mitochondrial; assay: Inhibition of GST-tagged SIRT5 (unknown origin) incubated for 5 mins by HPLC based analysis
Target sequence in this assay (Q9NXA8 whole entry): as above

[5] = target: T1, NAD-dependent protein deacylase sirtuin-5, mitochondrial; assay: Inhibition of human recombinant SIRT5 using Benzyl-Lys(succinyl)-AMC as substrate incubated for 2 hrs by fluorescence based assay
Target sequence in this assay (Q9NXA8 whole entry): as above

[6] = target: T1, NAD-dependent protein deacylase sirtuin-5, mitochondrial; assay: Inhibition of GST-tagged SIRT5 (unknown origin) incubated for 10 mins by HPLC based analysis
Target sequence in this assay (Q9NXA8 whole entry): as above

[7] = target: T2, NAD-dependent protein deacetylase sirtuin-3, mitochondrial (Homo sapiens, UniProt Q9NTG7); assay: Inhibition of human SIRT3 (118 to 399 aa) expressed in Escherichia coli BL21 cells
T2 sequence (Q9NTG7 whole entry): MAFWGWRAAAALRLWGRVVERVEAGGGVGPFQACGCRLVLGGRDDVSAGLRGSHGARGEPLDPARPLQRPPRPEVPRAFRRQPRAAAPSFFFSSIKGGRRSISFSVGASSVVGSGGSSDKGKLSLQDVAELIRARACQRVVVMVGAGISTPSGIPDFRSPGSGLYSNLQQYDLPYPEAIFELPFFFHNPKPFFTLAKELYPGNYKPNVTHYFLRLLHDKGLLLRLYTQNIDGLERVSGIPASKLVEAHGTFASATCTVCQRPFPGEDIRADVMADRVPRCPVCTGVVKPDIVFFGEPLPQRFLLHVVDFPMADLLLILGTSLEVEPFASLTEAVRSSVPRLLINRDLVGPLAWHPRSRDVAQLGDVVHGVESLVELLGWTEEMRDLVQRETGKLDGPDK

[8] = target: T3, NAD-dependent protein deacetylase sirtuin-1 (Homo sapiens, UniProt Q96EB6); assay: Inhibition of human N-terminal His6 tagged SIRT1 (183-505-(GGGS)2-641-665 residues) expressed in Escherichia coli BL21 cells
T3 sequence (Q96EB6 whole entry): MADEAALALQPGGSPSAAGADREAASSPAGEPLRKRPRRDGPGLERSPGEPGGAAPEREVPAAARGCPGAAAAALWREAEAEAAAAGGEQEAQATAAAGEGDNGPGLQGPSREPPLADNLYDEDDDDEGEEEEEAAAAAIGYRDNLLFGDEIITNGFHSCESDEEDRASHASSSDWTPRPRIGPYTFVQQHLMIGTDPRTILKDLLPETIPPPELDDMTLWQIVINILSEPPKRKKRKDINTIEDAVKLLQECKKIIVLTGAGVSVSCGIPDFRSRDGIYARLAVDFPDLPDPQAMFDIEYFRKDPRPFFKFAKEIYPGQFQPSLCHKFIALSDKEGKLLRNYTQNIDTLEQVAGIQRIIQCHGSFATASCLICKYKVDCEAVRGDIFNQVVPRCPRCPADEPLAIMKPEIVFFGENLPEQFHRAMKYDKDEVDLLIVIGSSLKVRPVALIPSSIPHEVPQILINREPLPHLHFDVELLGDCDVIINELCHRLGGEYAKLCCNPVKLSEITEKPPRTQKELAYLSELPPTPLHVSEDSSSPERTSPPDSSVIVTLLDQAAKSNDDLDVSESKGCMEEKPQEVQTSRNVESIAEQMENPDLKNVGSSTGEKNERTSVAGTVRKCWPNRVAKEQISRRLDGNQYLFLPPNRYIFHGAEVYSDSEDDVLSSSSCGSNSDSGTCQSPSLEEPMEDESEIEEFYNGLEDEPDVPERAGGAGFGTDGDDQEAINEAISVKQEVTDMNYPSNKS

[9] = target: T3, NAD-dependent protein deacetylase sirtuin-1; assay: Inhibition of SIRT1 (unknown origin)
[10] = target: T4, NAD-dependent protein deacetylase sirtuin-2 (Homo sapiens, UniProt Q8IXJ6); assay: Inhibition of SIRT2 (unknown origin)
T4 sequence (Q8IXJ6 whole entry): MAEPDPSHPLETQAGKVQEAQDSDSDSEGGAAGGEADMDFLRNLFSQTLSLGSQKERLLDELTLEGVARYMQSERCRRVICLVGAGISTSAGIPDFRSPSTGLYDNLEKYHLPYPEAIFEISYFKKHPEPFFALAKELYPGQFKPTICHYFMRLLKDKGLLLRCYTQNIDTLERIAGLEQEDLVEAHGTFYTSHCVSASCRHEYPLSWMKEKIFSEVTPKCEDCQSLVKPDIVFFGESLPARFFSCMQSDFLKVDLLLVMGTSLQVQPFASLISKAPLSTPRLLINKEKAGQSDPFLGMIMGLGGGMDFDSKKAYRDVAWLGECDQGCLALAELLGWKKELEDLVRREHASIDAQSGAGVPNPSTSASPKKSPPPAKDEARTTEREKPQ

inhibition [1]: 35%
inhibition [2]: 52%
Structure (SMILES): O=C(NCCn1c2ccccc2c2ccccc21)Nc1ccc(C(=O)O)cc1

IC50 [3]: < 0.3 µM
Structure (SMILES): O=C(O)CCNC(=S)NCCCC[C@H](NS(=O)(=O)c1cccc(F)c1)C(=O)N[C@@H](Cc1c[nH]c2ccccc12)C(=O)NC1CCC1

IC50 [4]: 7 µM
Structure (SMILES): CC(=O)N[C@H]1CCCCNC(=O)CCCCCCC(=O)NCCCC[C@@H](C(=O)N[C@H](C(N)=O)[C@@H](C)O)NC(=O)[C@H](CCCCNC(=S)NCCC(=O)O)NC(=O)[C@H](CCCNC(=N)N)NC1=O (Ac-KR[X1]KT-NH2; linker 1-4 via Suberoyl)

IC50 [5]: 8 µM
Structure (SMILES): CNC(=O)c1cccc(NC(=O)/C(C#N)=C/c2ccc(-c3ccc(C(=O)O)cc3)o2)c1

IC50 [3]: 13.2 µM
Structure (SMILES): N=C(N)NCCCC[C@@H]1NC(=O)CCCCCCC(=O)NCCCC[C@@H](C(N)=O)NC(=O)[C@H](CCCCNC(=S)NCCC(=O)O)NC1=O

IC50 [3]: 6.5 µM
Structure (SMILES): N=C(N)NCCCC[C@@H]1NC(=O)CCCCC(=O)NCCCC[C@@H](C(N)=O)NC(=O)[C@H](CCCCNC(=S)NCCC(=O)O)NC1=O

IC50 [5]: 9.26 µM
Structure (SMILES): N#C/C(=C\c1ccc(-c2ccc(C(=O)O)cc2)o1)C(=O)Nc1ccc(Cl)c([N+](=O)[O-])c1

IC50 [3]: 70 µM
Structure (SMILES): CC1(C)CC[C@]2(C(=O)O)CC[C@]3(C)C(=CC[C@@H]4[C@@]5(C)CC[C@H](O)C(C)(C)[C@@H]5CC[C@]43C)[C@@H]2C1 [OLEANOLIC_ACID]

IC50 [3]: < 0.3 µM
Structure (SMILES): O=C(O)CCNC(=S)NCCCC[C@H](NS(=O)(=O)c1cccc(F)c1)C(=O)N[C@@H](Cc1c[nH]c2ccccc12)C(=O)NC1CC1

IC50 [4]: 6 µM
Structure (SMILES): CC(=O)N[C@H]1CCCCNC(=O)CNC(=O)CCCCCCC(=O)NC(=O)NCCCC[C@@H](C(=O)N[C@H](C(N)=O)[C@@H](C)O)NC(=O)[C@H](CCCCNC(=S)NCCC(=O)O)NC(=O)[C@H](CCCNC(=N)N)NC1=O

IC50 [5]: 18.3 µM
Structure (SMILES): CC1=NN(c2ccc(C)c(Cl)c2)C(=O)/C1=C\c1ccc(-c2ccc(C(=O)O)cc2)o1

IC50 [6]: < 15 µM
Structure (SMILES): CC(C)(C)OC(=O)NC(CCCCNC(=S)NCCC(=O)O)C(=O)Nc1cccc(O)c1 (stereo unspecified)

IC50 [7]: 0.43 µM
IC50 [8]: 1.77 µM
Structure (SMILES): CCn1c(=O)n(CC(C)C)c(=O)c2[nH]c(SSc3nc4c([nH]3)c(=O)n(CC(C)C)c(=O)n4CC)nc21

IC50 [6]: < 15 µM
Structure (SMILES): CC(=O)NC(CCCCNC(=S)NCCC(=O)O)C(=O)Nc1cccc(O)c1 (stereo unspecified)

IC50 [6]: < 15 µM
Structure (SMILES): O=C(O)CCNC(=S)NCCCCC(NC(=O)OCc1ccccc1)C(=O)Nc1ccc(O)cc1 (stereo unspecified)

IC50 [3]: 5 µM
IC50 [9]: 256 µM
IC50 [10]: 256 µM
Structure (SMILES): O=C(O)CC(=S)NCCCC[C@H](NC(=O)OCc1ccccc1)C(=O)Nc1ccccc1

IC50 [3]: 40 µM
Structure (SMILES): CC1(C)CC[C@]2(C(=O)O)[C@H](O)C[C@]3(C)C(=CC[C@@H]4[C@@]5(C)CC[C@H](O)C(C)(C)[C@@H]5CC[C@]43C)[C@@H]2C1

IC50 [3]: 4 µM
Structure (SMILES): N=C(N)NCCCC[C@@H]1NC(=O)CCNC(=O)CCC[C@@H](C(N)=O)NC(=O)[C@H](CCCCNC(=S)NCCC(=O)O)NC1=O

IC50 [3]: 2.2 µM
Structure (SMILES): N=C(N)NCCCC[C@@H]1NC(=O)CCC(=O)NCCCC[C@@H](C(N)=O)NC(=O)[C@H](CCCCNC(=S)NCCC(=O)O)NC1=O

IC50 [5]: 5.9 µM
Structure (SMILES): N#C/C(=C\c1ccc(-c2ccc(C(=O)O)cc2)o1)C(=O)Nc1ccc(C#N)c(F)c1

IC50 [3]: 0.11 µM
Structure (SMILES): O=C(O)CCNC(=S)NCCCC[C@H](NS(=O)(=O)c1cccc(F)c1)C(=O)N[C@@H](Cc1c[nH]c2ccccc12)C(=O)NC1CCCC1

IC50 [6]: < 15 µM
Structure (SMILES): O=C(O)CCNC(=S)NCCCCC(NC(=O)OCc1ccccc1)C(=O)Nc1ccccc1O (stereo unspecified)
